Data published in article PMC6615598, “Novel antibiotics effective against gram-positive and -negative multi-resistant bacteria with limited resistance” (PLoS Biology, 2019).
Like-named read-outs stand apart in the source and are kept apart here. Starred links: 1 amine or outer side, 2 acyl side, 3 side chain; linkers in the order of their positions; H or OH if unused. Non-standard residues stand in square brackets, D forms with d. Residues, ends and D or L forms follow the SMILES beside them. azaβ3(1Nal) = O=C(CN(Cc1cccc2ccccc12)N[*:1])[*:2]

Key:
[1] = system: S. aureus Newman; assay: microbe, parasite or virus in culture; settings: Newman
Method: (§1) (10−4 M final concentrations). At selected time intervals, 100 μl of reaction mixture was collected, quenched by 200 μl 95% EtOH, and adjusted at pH 2 to prevent peptide adsorption to serum proteins. […] Supernatants were analyzed by RP-HPLC on an Xbridge C18 column with a linear gradient of water, 0.08% TFA, and acetonitrile with 1% TFA. HPLC peak areas were used to calculate the percentages of intact compound remaining at the various time points. MIC and MBC values were determined in triplicate in many ESKAPE clinical isolates, including a dozen MDR S. aureus, by the broth microdilution method. Peptidomimetics and antibiotics were assayed in a concentration range of 1 to 128 μM. The bacterial inoculum (5 × 10^5 colony-forming units [CFUs]/well) was prepared in MHB or CAMHB (150 μl). A Biotek Synergy 2 spectrophotometer was used to record the results after 18–20 h incubation at 35°C (±2°C). […] After every hour of culture for 4 h, serial dilutions were plated on BHI plates and incubated overnight at 37°C, and then the CFUs were counted and expressed as log CFU/ml. Phosphate-buffered saline (PBS)-exposed S. aureus MRSA was included as a control.

[2] = system: S. aureus N315 (MRSA); assay: microbe, parasite or virus in culture; settings: N315
Method: as §1

[3] = system: S. aureus Mu3 (MRSA); assay: microbe, parasite or virus in culture; settings: Mu3
Method: as §1

[4] = system: MRSA; assay: Mild sepsis mouse model, survival; type: in vivo; settings: mice, approximately 5 × 10^8 MRSA IV; single IV 1.5 mg.kg^−1 at 3 h or 15 h post infection; 14 d
Source text: Tolerance and toxicity studies were done on male Swiss mice (CD-1 Crl: CD-1 [ICR] IGS; Charles River). These were 7 to 10 weeks old and weighed an average of 37.2 g. All experimental protocols were approved by the Adaptive Therapeutics Animal Care and Use Committee (APAFiS #4508-2016031l15541258 v2). For the sepsis model, we used female Swiss mice (Janvier Labs), 6 to 8 weeks old and weighing approximately 30 g. Experiments were monitored in the ARCHE-BIOSIT animal lab in Rennes, in biological duplicate. We used Groups of 5 mice for the mild and the severe sepsis models with MRSA. Mice were IV inoculated with 150 μl of MRSA suspensions in 0.9% NaCl containing approximately 5 × 10^8 CFUs for the “mild” sepsis and approximately 2 × 10^9 CFUs for the “severe” sepsis, respectively. […] Mice survival was monitored for 4 d (“severe” sepsis) or 14 d (“mild” sepsis), and the statistical significance of difference(s) between the groups was evaluated using the Wilcoxon test. P < 0.05 was considered significant. Two weeks (“mild” sepsis) or 4 d (“severe” sepsis) after inoculation, mice were euthanized with CO2.

[5] = system: S. aureus MRSA; assay: Time-kill assay at 30-fold MIC; type: cell-based; settings: 4 h
Method: as §1

[6] = system: Escherichia coli 066; settings: 066
Method: as §1

[7] = system: P. aeruginosa 15643
Method: as §1

[8] = system: Escherichia coli 283; settings: 283
Method: as §1

[9] = system: Escherichia coli 146; settings: 146
Method: as §1

[10] = system: Escherichia coli 13090
Method: as §1

[11] = system: Escherichia coli K12; settings: K12
Method: as §1

[12] = system: P. aeruginosa 15638
Method: as §1

[13] = system: Escherichia coli ML35P; settings: E. coli ML35P; broth microdilution; 3 independent experiments
Method: as §1

[14] = system: P. aeruginosa 15641; settings: 15641
Method: as §1

[15] = system: Escherichia coli MCR−1; settings: MCR−1
Method: as §1

[16] = system: P. aeruginosa 15644
Method: as §1

[17] = system: Escherichia coli 758; settings: 758
Method: as §1

[18] = system: A. baumanii 7985
Method: as §1

[19] = system: Escherichia coli PV; settings: PV
Method: as §1

[20] = system: Enterobacter cloacae ATCC13047; settings: ATCC13047
Method: as §1

[21] = system: Escherichia coli 444; settings: 444
Method: as §1

[22] = system: Escherichia coli 750
Method: as §1

[23] = system: Escherichia coli 508
Method: as §1

[24] = system: K. pneumoniae 13825
Method: as §1

[25] = system: P. aeruginosa PA14; settings: PA14
Method: as §1

[26] = system: A. baumanii 11896
Method: as §1

[27] = system: K. pneumoniae 13829; settings: 13829
Method: as §1

[28] = system: Escherichia coli 293; settings: 293
Method: as §1

[29] = system: E. faecium Aus0004
Method: as §1

[30] = system: P. aeruginosa 15637; settings: 15637
Method: as §1

SMILES | MIC [1] | MIC [2] | MIC [3] | Survival in mild sepsis [4] | Bactericidal activity in time-kill curves [5] | MIC [6] | MIC [8] | MIC [9] | MIC [11] | MIC [13] | MIC [14] | MIC [15] | MIC [17] | MIC [18] | MIC [19] | MIC [20] | MIC [21] | MIC [25] | MIC [26] | MIC [27] [µM] | also measured
CC(C)[C@@H]1NC(=O)[C@H](CCCNC(=N)N)NC(=O)[C@H](CCCNC(=N)N)NC(=O)[C@H](Cc2c[nH]c3ccccc23)NC(=O)[C@H](Cc2ccccc2)NC(=O)[C@H](Cc2ccccc2)NC(=O)[C@H](CCCCN)NC1=O [Pep18] (cyclo(FFWRRVK)) | 16 (16.4) μM | 8 (8.2) μM | 8 (8.2) μM | no effect | higher bactericidal activities than vancomycin | 32 (32.8) μM | 32 (32.8) μM | 32 (32.8) μM | 16 (16.4) μM | 16 (16.4) μM | 32 (32.8) μM | 32 (32.8) μM | 32 (32.8) μM | >128 µM | 32 (32.8) μM | 128 (131.2) μM | 32 (32.8) μM | 8 (8.2) μM | >128 µM | >128 | MIC ([7]; P. aeruginosa 15643, clinical strain, Caen hemoculture, broth microdilution, 3 independent experiments): 16 (16.4) μM; MIC ([10]; E. coli 13090, clinical strain, Caen hemoculture, broth microdilution, 3 independent experiments): 16 (16.4) μM; MIC ([12]; P. aeruginosa 15638, clinical strain, Caen hemoculture, broth microdilution, 3 independent experiments): 64 (65.6) μM; MIC ([16]; P. aeruginosa 15644, clinical strain, Caen hemoculture, broth microdilution, 3 independent experiments): 64 (65.6) μM; MIC ([22]; E. coli 750, clinical strain, Rennes urinary catheter, broth microdilution, 3 independent experiments): 16 (16.4) μM; MIC ([23]; E. coli 508, clinical strain, Rennes urinary catheter, broth microdilution, 3 independent experiments): 64 (65.6) μM; MIC ([24]; K. pneumoniae 13825, clinical strain, Caen hemoculture, broth microdilution, 3 independent experiments): 16 (16.4) μM; MIC [28]: 32 (32.8) μM; MIC ([29]; E. faecium Aus0004, broth microdilution, 3 independent experiments): 64 (65.6) μM; MIC [30]: 8 (8.2) μM
CC(C)[C@@H]1NC(=O)[C@H](CCCNC(=N)N)NC(=O)[C@H](CCCNC(=N)N)NC(=O)CN(Cc2cccc3ccccc23)NC(=O)[C@H](Cc2ccccc2)NC(=O)CN(Cc2cccc3ccccc23)NC(=O)[C@H](CCCCN)NC1=O [Pep19] (cyclo([azaβ3(1Nal)]F[azaβ3(1Nal)]RRVK)) | 4 (4.5) μM | 4 (4.5) μM | 4 (4.5) μM | survived better than those without treatment | higher bactericidal activities than vancomycin | 8 (9) μM | 8 (9) μM | 8 (9) μM | 4 (4.5) μM | 4 (4.5) μM | 16 (18) μM | 16 (18) μM | 8 (9) μM | 8 (9) μM | 8 (9) μM | 16 (18) μM | 8 (9) μM | 8 (9) μM | 8 (9) μM | >128 | MIC [7]; 15643: 8 (9) μM; MIC [10]; 13090: 4 (4.5) μM; MIC [12]; 15638: 16 (18) μM; MIC [16]; 15644: 16 (18) μM; MIC [22]; 750: 8 (9) μM; MIC [23]; 508: 8 (9) μM; MIC [24]; 13825: 8 (9) μM; MIC [28]: 16 (18) μM; MIC ([29]; Aus0004): 8 (9) μM; MIC [30]: 8 (9) μM
